According to ChEMBL document CHEMBL1275297, “Homology modeling and molecular dynamics of CYP1A1 and CYP2B1 to explore the metabolism of aryl derivatives by docking and experimental assays” (Eur J Med Chem, 2010):

Assays:
[1] = Binding affinity to rat CYP2B1-heme complex
[2] = Binding affinity to human CYP1A1-heme complex
Cytochrome P450 2B1 = biological target: T1, Cytochrome P450 2B1 (Rattus norvegicus, UniProt P00176); test: Binding affinity to rat CYP2B1; type: ADME
T1 sequence (P00176 whole entry): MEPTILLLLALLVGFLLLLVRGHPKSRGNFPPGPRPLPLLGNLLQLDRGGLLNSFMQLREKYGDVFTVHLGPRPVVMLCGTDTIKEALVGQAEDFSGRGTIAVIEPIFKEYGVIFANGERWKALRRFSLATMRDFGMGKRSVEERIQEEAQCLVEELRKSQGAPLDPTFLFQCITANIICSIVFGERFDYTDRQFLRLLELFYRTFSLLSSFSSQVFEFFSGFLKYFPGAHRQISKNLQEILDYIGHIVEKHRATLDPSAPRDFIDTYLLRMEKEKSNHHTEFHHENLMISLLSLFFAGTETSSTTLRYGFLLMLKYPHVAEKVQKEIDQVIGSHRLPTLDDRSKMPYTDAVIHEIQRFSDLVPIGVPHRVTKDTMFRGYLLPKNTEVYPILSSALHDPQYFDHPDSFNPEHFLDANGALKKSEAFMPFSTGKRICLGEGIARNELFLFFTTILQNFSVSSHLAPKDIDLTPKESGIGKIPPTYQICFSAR

Cytochrome P450 1A1 = biological target: T2, Cytochrome P450 1A1 (Homo sapiens, UniProt P04798); test: Binding affinity to human CYP1A1; type: ADME
T2 sequence (P04798 whole entry): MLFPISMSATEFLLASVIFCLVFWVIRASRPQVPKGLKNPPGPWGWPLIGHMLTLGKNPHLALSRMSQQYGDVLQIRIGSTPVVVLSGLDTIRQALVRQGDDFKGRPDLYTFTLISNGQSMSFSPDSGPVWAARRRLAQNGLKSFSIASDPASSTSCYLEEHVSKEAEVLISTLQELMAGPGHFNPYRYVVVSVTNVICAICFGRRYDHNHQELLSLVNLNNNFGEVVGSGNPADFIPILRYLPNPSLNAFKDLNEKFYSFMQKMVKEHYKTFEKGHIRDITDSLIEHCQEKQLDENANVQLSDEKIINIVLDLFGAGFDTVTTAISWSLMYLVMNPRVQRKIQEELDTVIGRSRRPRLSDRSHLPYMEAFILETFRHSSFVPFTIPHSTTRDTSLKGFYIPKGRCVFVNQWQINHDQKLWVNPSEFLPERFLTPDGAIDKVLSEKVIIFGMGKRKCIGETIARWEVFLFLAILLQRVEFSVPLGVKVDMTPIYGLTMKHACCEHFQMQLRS

| Kd [1] [nM] | Kd [2] [µM] | Kd (Cytochrome P450 2B1) [µM] | Kd (Cytochrome P450 1A1) [µM] | SMILES |
| --- | --- | --- | --- | --- |
| 1760 | 0.789 | 1.12 | 2.25 | O=C(O)CCC(=O)Nc1ccc(O)cc1 |
| 1570 | 3.96 | 24 | 13.5 | O=C1CCC(=O)N1c1ccc(O)cc1 |

| SMILES | Kd [1] [nM] | Kd [2] [µM] | Kd (Cytochrome P450 2B1) [µM] | Kd (Cytochrome P450 1A1) [µM] |
| --- | --- | --- | --- | --- |
| CC(=O)Nc1ccc(O)cc1 [ACETAMINOPHEN] | 6640 | 5.79 | – | 19.1 |
